According to US4933368A, “N-phenylbenzamide derivatives” (Godecke Aktiengesellschaft, priority 1983, dated 1990):

Assays:
[1] = tested on: peripheral leukocytes and lymphocytes; conditions: conventional cytostatics and immunosuppressive agents; cited from earlier work
Water solubility = assay type: physicochemical; conditions: dihydrochloride
Text: Using a solution of HCl-gas in ethanol the compound can be converted to dihydrochloride, which is 4% water soluble.

Electro-convulsion = assay: Maximal electroconvulsion test; assay type: in vivo; conditions: Mus musculus, po; i.g., mice

| Structure (SMILES) | reattainment of normal hematological findings after discontinuation [1] | also measured |
| --- | --- | --- |
| CN(Cc1cnc2nc(N)nc(N)c2n1)c1ccc(C(=O)N[C@@H](CCC(=O)O)C(=O)O)cc1 [methotrexate] | No comparable short-term extensive reattainment of normal hematological findings | – |
| O=P1(N(CCCl)CCCl)NCCCO1 (centres unmarked) [cyclophosphamide] | No comparable short-term extensive reattainment of normal hematological findings | – |
| Cl.Cl.Nc1ccc(C(=O)Nc2ccccc2N)cc1 [dihydrochloride, 4-Amino-N-(2'aminophenyl)-benzamide-dihydrochloride] | – | solubility (Water solubility): 40 mg/mL |
| Cn1cnc([N+](=O)[O-])c1Sc1ncnc2nc[nH]c12 [Azathioprine] | No comparable short-term extensive reattainment of normal hematological findings | – |
| O=C1NC(=O)C(c2ccccc2)(c2ccccc2)N1 [Diphenylhydantoin, reference compound] | – | ED50 (Electro-convulsion): 22.5 mg/kg |
